Test results as given in patent US4618602A, “Amine containing pseudooligosaccharide, pharmaceutical composition and method of use” (Hoechst Aktiengesellschaft, priority 1984, dated 1986).

Legend:
blood sugar = experiment: Blood sugar after oral starch load in fasting male Wistar rats; assay type: in vivo; conditions: simultaneously with 2 g of starch per kg, fasting male Wistar rats 200-250 g
Description: The α-glucosidase inhibitor according to the invention is particularly suitable for ora administration. It can be administered as the pure substance, as a physiologically acceptable salt with acids or in the form of a pharmaceutical formulation, using the customary auxiliaries and excipients. Combined use with other medicaments, such as hypoglycemic or lipid-lowering substances, may also be advantageous. Since high molecular weight saccharides are not, or not noticeably, absorbed as such from the digestive tract, no toxicologically unacceptable side effects are to be expected of the substance according to the invention. […] To test the pharmacological action of the AI-5662, fasting male Wistar rats weighing between 200 and 250 g were given an oral administration of the inhbitor AI-5662 according to the invention simultaneously with 2 g of starch per kg of body weight. […] Besides blood glucose regulation, the […] according to the invention can also be used for inhibiting salivary α-amylase. This enzyme effects digestion of starch in the mouth, and the sugar thus formed promotes caries of the teeth. The compound according to the invention can therefore be used to prevent or reduce the development of caries.

experimental animals = experiment: Oral administration of high doses to experimental animals (tolerability); assay type: in vivo
Solubility in water = assay type: physicochemical
[1] = test system: α-Amylase from the pancreas of pigs; experiment: Amylase test (inhibition of α-amylase, amylase inhibitor units); assay type: biochemical; conditions: 1 AIU inhibits two amylase units by 50%, pH 6.9, 37° C.
Protocol: One amylase inhibitor unit (AIU) is defined as the amount of inhibitor which is capable of inhibiting two amylase units (AU) to the extent of 50% under the test conditions. By international agreement, one amylase unit is the amount of enzyme which cleaves 1 μEq of glucosidic bonds in starch in one minute. The μ equivalents of glucosidic bonds cleaved are determined photometrically, with dinitrosalicylic acid, as μEq of reducing sugars. The data are calculated as μmol of maltose, determined with the aid of a maltose calibration line.
α-Amylase from the pancreas of pigs and the solutions to be tested are preincubated together in 1.0 ml of 20 mM phosphate buffer, pH 6.9, +10 mM NaCl at 37° C. for 10-20 minutes. The enzymatic reaction is started by addition of 1.0 ml of soluble starch (0.25% strength in the buffer described) according to Zulkowski. After exactly 10 minutes, the reaction istopped with 2.0 ml of dinitrosalicylic acid color reagent (from Boehringer Mannheim: Biochemica-Information II), and the mixture is heated in a boiling waterbath for 5 minutes for color development. After cooling, the extinction is measured against the reagent blank at 546 nm. The 50% inhibition is determined graphically by means of a probability plot in comparison with the non-inhibited enzyme reaction using various amounts of inhibitor.

solubility in water (Solubility in water): readily soluble in water
α-amylase-inhibiting action ([1]; freeze-dried white amorphous powder of Example 2): 4×10^4 AIU per mg
specific activity ([1]; purified product after silica gel chromatography): 4×10^4 α-amylase inhibitor units per mg
SMILES: C[C@H]1O[C@H](O[C@H]2[C@H](O)[C@@H](O)[C@@H](O[C@H]3[C@H](O)[C@@H](O)C(O)O[C@@H]3CO)O[C@@H]2CO)[C@H](O)[C@@H](O)[C@@H]1N[C@H]1C=C(CO)[C@@H](O[C@H]2O[C@H](CO)[C@@H](O[C@H]3O[C@H](C)[C@@H](N[C@H]4C=C(CO)[C@@H](O)[C@H](O)[C@H]4O)[C@H](O)[C@H]3O)[C@H](O)[C@H]2O)[C@H](O)[C@H]1O (some centres unmarked) [AI-5662]
efficacy on blood sugar concentrations (blood sugar): The efficacy of the product was demonstrated
signs following oral administration even of high doses (experimental animals): no notworthy signs were detected
